Counter-ions that a name gives are not always drawn. Like-named read-outs stand apart in the source and are kept apart here.
How the values were obtained:
[1] = system: primary cortico-hippocampal neuron cultures; test: MTT in primary screening
Aβ1-40 = Aβ1-40 content in conditioned medium of primary cortico-hippocampal neuron cultures from Tg2576 mice (ELISA; primary and secondary dose-response screening); format: cell-based, mouse; conditions: for activity at 100 µM: Mus musculus, Neuron, 24 h, drug 100 μM, read-out: Ab1-40 (% of ctl); for reduced Aβ1-40: <85% of ctl
How it was run: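 Primary cortico-hippocampal neurons from embryonic Tg2576 mice were plated at 1.0×10^5 cells per well on poly-D-lysine-coated 96-well plates in Neurobasal with 2% B27, 0.5 mM L-glutamine and 1% penicillin-streptomycin. Cultures received drug in 1% DMSO, and Aβ1-40 in the conditioned medium was measured by BioSource ELISA 24 hours after treatment, relative to vehicle controls.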

[2] = system: primary cortico-hippocampal neuron cultures; test: lactate dehydrogenase (LDH) activity assay in parallel neuron cultures
Method: For in vitro treatments drugs available from “The Spectrum Collection” in stocks of 10 mM in DMSO were applied directly to cultures to the desired concentrations (final 1% DMSO); control primary neuron cultures from Tg2576 embryos were treated with vehicle resulting in a final 1% DMSO.
Cell viability was assessed using a commercial available LDH assay kit according to the manufacture's instruction (Promega).

Aβ1-42 = Aβ1-42 content in conditioned medium of primary cortico-hippocampal neuron cultures from Tg2576 mice (ELISA; primary and secondary dose-response screening); format: cell-based, mouse; conditions: for activity at 100 µM: Mus musculus, Neuron, 24 h, drug 100 μM, read-out: Ab1-42 (% of ctl); for reducing Aβ1-42: <85% of ctl
How it was run: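 Primary cortico-hippocampal neurons from embryonic Tg2576 mouse brain were seeded on poly-D-lysine-coated 96-well plates at 1.0×10^5 cells per well in serum-free Neurobasal medium with 2% B27, 0.5 mM L-glutamine and 1% penicillin-streptomycin. For primary screening, duplicate wells received 100 μM drug (1% DMSO final). Vehicle-treated cultures served as controls, and Aβ1-42 in conditioned medium was measured by commercial ELISA.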

[3] = Primary Screening, table sorted by Aβ1-40
[4] = primary screening, table sorted by Aβ1-42
[5] = primary screening, Tg2576 neuron cultures, table sorted by Aβ1-42

| SMILES | MTT (% of ctl) [1, 3] | MTT (% of ctl) [1, 4] | LDH (% of ctl) [2, 3] | LDH (% of ctl) [2, 4] | activity at 100 µM (Aβ1-40; [3]) [%] | activity at 100 µM (Aβ1-40; [5]) [%] | activity at 100 µM (Aβ1-42; [3]) [%] | activity at 100 µM (Aβ1-42; [5]) [%] | reduced Aβ1-40 (Aβ1-40; primary screening) | reducing Aβ1-42 (Aβ1-42; primary screening) |
| --- | --- | --- | --- | --- | --- | --- | --- | --- | --- | --- |
| CC(=O)CC(c1ccccc1)c1c(O)c2ccccc2oc1=O (centres unmarked) [Warfarin] | 100.1 % of ctl | 100.1 % of ctl | 106.6 % of ctl | 106.6 % of ctl | 89.4 | 89.4 | 107 | 107 |  |  |
| COCCc1ccc(OCC(O)CNC(C)C)cc1 (centres unmarked) [Metoprolol Tartrate] | 94.7 % of ctl | 94.7 % of ctl | 107.5 % of ctl | 107.5 % of ctl | 91.4 | 91.4 | 104 | 104 |  |  |
| NS(=O)(=O)c1cc(C(=O)O)c(NCc2ccco2)cc1Cl [Furosemide] | 101.0 % of ctl | 101.0 % of ctl | 98.2 % of ctl | 98.2 % of ctl | 118 | 118 | 95.7 | 95.7 |  |  |
| CC(N)CCCC(C)(C)O (centres unmarked) [Heptaminol Hydrochloride] | 103.4 % of ctl | 103.4 % of ctl | 103.4 % of ctl | 103.4 % of ctl | 112 | 112 | 105 | 105 |  |  |
| CC(C)NCC(O)COc1ccc(CC(N)=O)cc1 (centres unmarked) [Atenolol] | 97.3 % of ctl | 97.3 % of ctl | 136.8 % of ctl | 136.8 % of ctl | 90.4 | 90.4 | 94.5 | 94.5 |  |  |
| CCCc1nc(C(C)(C)O)c(C(=O)OCc2oc(=O)oc2C)n1Cc1ccc(-c2ccccc2-c2nnn[nH]2)cc1 [Olmesartan Medoxomil] | 90.7 % of ctl | 90.7 % of ctl | 90.7 % of ctl | 90.7 % of ctl | 83.9 | 83.9 | 70.7 | 70.7 | reduced Aβ1-40 | useful in reducing Aβ1-42 |

Further lines, with some results ahead:

| MTT (% of ctl) [1, 3] | MTT (% of ctl) [1, 4] | LDH (% of ctl) [2, 3] | LDH (% of ctl) [2, 4] | SMILES | activity at 100 µM (Aβ1-40; [3]) [%] | activity at 100 µM (Aβ1-40; [5]) [%] | activity at 100 µM (Aβ1-42; [3]) [%] | activity at 100 µM (Aβ1-42; [5]) [%] | reduced Aβ1-40 (Aβ1-40; primary screening) | reducing Aβ1-42 (Aβ1-42; primary screening) |
| --- | --- | --- | --- | --- | --- | --- | --- | --- | --- | --- |
| 99.8 % of ctl | 99.8 % of ctl | 106.2 % of ctl | 106.2 % of ctl | CO[C@]12C[C@@H](COC(=O)c3cncc(Br)c3)CN(C)[C@@H]1Cc1cn(C)c3cccc2c13 [Nicergoline] | 76.1 | 76.1 | 98.5 | 98.5 | reduced Aβ1-40 |  |
| 76.5 % of ctl | 76.5 % of ctl | 159.3 % of ctl | 159.3 % of ctl | CN1C[C@H](CNC(=O)OCc2ccccc2)C[C@@H]2c3cccc4c3c(cn4C)C[C@H]21 [Metergoline] | -3.1 | -3.1 | 2.3 | 2.3 | reduced Aβ1-40 | useful in reducing Aβ1-42 |
| 99.5 % of ctl | 99.5 % of ctl | 100.6 % of ctl | 100.6 % of ctl | CCOC(=O)NNc1nncc2ccccc12 [Todralazine Hydrochloride] | 105 | 105 | 110 | 110 |  |  |

Source: patent publication US20100029654A1, “CARDIOVASCULAR COMPOSITIONS AND USE OF THE SAME FOR THE TREATMENT OF ALZHEIMER'S DISEASE” (MOUNT SINAI SCHOOL OF MEDICINE, priority 2006, published 2010)
